Reference: PubChem BioAssay (NCI)
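These data come from cells grown in 96-well plates and exposed to compound for 48 hours at five concentrations. GI50 is the concentration that inhibits growth by half. At the TGI there is no net growth.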

What was measured:
Assay in all cases: NCI tumour cell line growth inhibition, 48 h
[1] = test system: 786-0 renal
[2] = test system: A498 renal
[3] = test system: ACHN renal
[4] = test system: BT-549 breast
[5] = test system: CCRF-CEM leukemia
[6] = test system: COLO 205 colon
[7] = test system: DU-145 prostate
[8] = test system: HCC-2998 colon
[9] = test system: HCT-116 colon
[10] = test system: HCT-15 colon
[11] = test system: HL-60(TB) leukemia
[12] = test system: HOP-62 NSCLC
[13] = test system: HOP-92 NSCLC
[14] = test system: HS 578T breast
[15] = test system: HT29 colon
[16] = test system: IGROV1 ovarian
[17] = test system: K-562 leukemia
[18] = test system: KM12 colon
[19] = test system: LOX IMVI melanoma
[20] = test system: M14 melanoma
[21] = test system: MALME-3M melanoma
[22] = test system: MCF7 breast
[23] = test system: MDA-MB-231 breast
[24] = test system: MOLT-4 leukemia
[25] = test system: NCI-H226 lung
[26] = test system: NCI-H23 lung
[27] = test system: NCI-H460 lung
[28] = test system: NCI-H522 lung
[29] = test system: NCI/ADR-RES ovarian
[30] = test system: OVCAR-3 ovarian
[31] = test system: OVCAR-4 ovarian
[32] = test system: OVCAR-5 ovarian
[33] = test system: OVCAR-8 ovarian
[34] = test system: RPMI-8226 leukemia
[35] = test system: RXF 393 renal
[36] = test system: SF-268 CNS
[37] = test system: SF-295 CNS
[38] = test system: SF-539 CNS
[39] = test system: SK-MEL-2 melanoma
[40] = test system: SK-MEL-28 melanoma
[41] = test system: SK-MEL-5 melanoma
[42] = test system: SK-OV-3 ovarian
[43] = test system: SN12C renal
[44] = test system: SNB-19 CNS
[45] = test system: SNB-75 CNS
[46] = test system: SR leukemia
[47] = test system: SW-620 colon
[48] = test system: T-47D breast
[49] = test system: TK-10 renal
[50] = test system: U251 CNS
[51] = test system: UACC-257 melanoma
[52] = test system: UACC-62 melanoma
[53] = test system: UO-31 renal
[54] = test system: A549 NSCLC
[55] = test system: CAKI-1 renal
[56] = test system: EKVX NSCLC
[57] = test system: MDA-MB-435
[58] = test system: PC-3 prostate

COc1ccc(-c2nn(-c3cccc(Cl)c3)cc2C=C(C#N)C#N)cc1
GI50 [1]: 2250 nM | TGI [1]: 6.36 µM | GI50 [2]: 1230 nM | TGI [2]: 5.95 µM | GI50 [3]: 2640 nM | TGI [3]: 8.82 µM | GI50 [4]: 1550 nM | TGI [4]: 4050 nM | GI50 [5]: 1430 nM | TGI [5]: 4.76 µM | GI50 [6]: 4040 nM | TGI [6]: 10.5 µM | GI50 [7]: 3550 nM | TGI [7]: 90.1 µM | GI50 [8]: 3670 nM | TGI [8]: 14 µM | GI50 [9]: 1730 nM | TGI [9]: 4.44 µM | GI50 [10]: 3240 nM | TGI [10]: > 100 µM | GI50 [11]: 2390 nM | TGI [11]: 6.37 µM | GI50 [12]: 2590 nM | TGI [12]: 6.04 µM | GI50 [13]: 1260 nM | TGI [13]: 3980 nM | GI50 [14]: 1570 nM | TGI [14]: 7.04 µM | GI50 [15]: 2480 nM | TGI [15]: 5.56 µM | GI50 [16]: 2850 nM | TGI [16]: 6.29 µM | GI50 [17]: 2010 nM | TGI [17]: 10.4 µM | GI50 [18]: 2830 nM | TGI [18]: 8.86 µM | GI50 [19]: 2080 nM | TGI [19]: 4810 nM | GI50 [20]: 2390 nM | TGI [20]: 6.92 µM | GI50 [21]: 2660 nM | TGI [21]: 7.76 µM | GI50 [22]: 2350 nM | TGI [22]: 7.72 µM | GI50 [23]: 2030 nM | TGI [23]: 5.14 µM | GI50 [24]: 2120 nM | TGI [24]: 6.12 µM | GI50 [25]: 2740 nM | TGI [25]: 11.8 µM | GI50 [26]: 2680 nM | TGI [26]: 7.66 µM | GI50 [27]: 2050 nM | TGI [27]: 5.37 µM | GI50 [28]: 2210 nM | TGI [28]: 5.76 µM | GI50 [29]: 2490 nM | TGI [29]: 7.17 µM | GI50 [30]: 2200 nM | TGI [30]: 4.9 µM | GI50 [31]: 2290 nM | TGI [31]: 6.48 µM | GI50 [32]: 3680 nM | TGI [32]: 48.4 µM | GI50 [33]: 2200 nM | TGI [33]: 5.77 µM | GI50 [34]: 2300 nM | TGI [34]: 7.1 µM | GI50 [35]: 1850 nM | TGI [35]: 4.99 µM | GI50 [36]: 2500 nM | TGI [36]: 9.14 µM | GI50 [37]: 2310 nM | TGI [37]: 5.31 µM | GI50 [38]: 2300 nM | TGI [38]: 5.44 µM | GI50 [39]: 2370 nM | TGI [39]: 4830 nM | GI50 [40]: 2350 nM | TGI [40]: 5.84 µM | GI50 [41]: 2280 nM | TGI [41]: 5.87 µM | GI50 [42]: 2660 nM | TGI [42]: 5.72 µM | GI50 [43]: 3350 nM | TGI [43]: > 100000 nM | GI50 [44]: 2630 nM | TGI [44]: > 100 µM | GI50 [45]: 1810 nM | TGI [45]: 4510 nM | GI50 [46]: 1540 nM | TGI [46]: 3.66 µM | GI50 [47]: 1900 nM | TGI [47]: 5.45 µM | GI50 [48]: 3340 nM | TGI [48]: 21.8 µM | GI50 [49]: 2600 nM | TGI [49]: 6.48 µM | GI50 [50]: 1590 nM | TGI [50]: 3.33 µM | GI50 [51]: 1820 nM | TGI [51]: 5.27 µM | GI50 [52]: 2390 nM | TGI [52]: 10.6 µM | GI50 [53]: 2210 nM | TGI [53]: 7.88 µM

CCSc1oc(-c2ccccc2)nc1[P+](c1ccccc1)(c1ccccc1)c1ccccc1
GI50 [1]: 376 nM | TGI [1]: 2.11 µM | GI50 [2]: 126 nM | TGI [2]: 0.579 µM | GI50 [54]: 301 nM | TGI [54]: 4.71 µM | GI50 [3]: 309 nM | TGI [3]: 1.13 µM | GI50 [4]: 281 nM | TGI [4]: 1680 nM | GI50 [55]: 790 nM | TGI [55]: 2660 nM | GI50 [5]: 320 nM | TGI [5]: 3.21 µM | GI50 [6]: 186 nM | TGI [6]: 0.42 µM | GI50 [7]: 314 nM | TGI [7]: 2.63 µM | GI50 [56]: 289 nM | TGI [56]: 1840 nM | GI50 [8]: 418 nM | TGI [8]: 2.16 µM | GI50 [9]: 218 nM | TGI [9]: 3.42 µM | GI50 [10]: 622 nM | TGI [10]: 4.66 µM | GI50 [11]: 149 nM | TGI [11]: 0.469 µM | GI50 [12]: 308 nM | TGI [12]: 1.87 µM | GI50 [13]: 150 nM | TGI [13]: 551 nM | GI50 [14]: 314 nM | TGI [14]: 2.72 µM | GI50 [15]: 238 nM | TGI [15]: 2.33 µM | GI50 [16]: 285 nM | TGI [16]: 1.53 µM | GI50 [17]: 152 nM | TGI [17]: 3.45 µM | GI50 [18]: 233 nM | TGI [18]: 1.09 µM | GI50 [19]: 184 nM | TGI [19]: 412 nM | GI50 [20]: 334 nM | TGI [20]: 1.84 µM | GI50 [21]: 287 nM | TGI [21]: 1.3 µM | GI50 [22]: 246 nM | TGI [22]: 1.28 µM | GI50 [23]: 266 nM | TGI [23]: 1.08 µM | GI50 [57]: 308 nM | TGI [57]: 1120 nM | GI50 [25]: 286 nM | TGI [25]: 1.86 µM | GI50 [26]: 277 nM | TGI [26]: 1.1 µM | GI50 [27]: 298 nM | TGI [27]: 1.08 µM | GI50 [28]: 261 nM | TGI [28]: 1.09 µM | GI50 [29]: 2290 nM | TGI [29]: 9.58 µM | GI50 [30]: 268 nM | TGI [30]: 1.7 µM | GI50 [31]: 217 nM | TGI [31]: 1.48 µM | GI50 [32]: 416 nM | TGI [32]: 6.36 µM | GI50 [33]: 275 nM | TGI [33]: 12.3 µM | GI50 [58]: 213 nM | TGI [58]: 1440 nM | GI50 [34]: 135 nM | TGI [34]: 0.52 µM | GI50 [35]: 331 nM | TGI [35]: 1.93 µM | GI50 [36]: 331 nM | TGI [36]: 4.02 µM | GI50 [37]: 241 nM | TGI [37]: 0.739 µM | GI50 [38]: 376 nM | TGI [38]: 2.85 µM | GI50 [39]: 276 nM | TGI [39]: 866 nM | GI50 [40]: 467 nM | TGI [40]: 2.32 µM | GI50 [41]: 164 nM | TGI [41]: 0.315 µM | GI50 [42]: 275 nM | TGI [42]: 0.977 µM | GI50 [43]: 298 nM | TGI [43]: 1230 nM | GI50 [44]: 293 nM | TGI [44]: 3.88 µM | GI50 [45]: 177 nM | TGI [45]: 727 nM | GI50 [46]: 377 nM | TGI [46]: 24.2 µM | GI50 [47]: 305 nM | TGI [47]: 7.32 µM | GI50 [48]: 68.6 nM | TGI [48]: 1.15 µM | GI50 [49]: 258 nM | TGI [49]: 2.66 µM | GI50 [50]: 163 nM | TGI [50]: 4.61 µM | GI50 [51]: 309 nM | TGI [51]: 1.28 µM | GI50 [52]: 305 nM | TGI [52]: 1.44 µM | GI50 [53]: 321 nM | TGI [53]: 1.38 µM
